According to patent US11439148B2, “Pyrimidine derivatives” (SYNGENTA PARTICIPATIONS AG, priority 2017, dated 2022):
Several values for one entry are separate records, joined by “and”; a condition that tells them apart may be missing. Equal entries are not always repeated.

Experiments:
Assay type in all cases: in vivo
[1] = system: Setaria viridis (SETVI); experiment: Adjuvant efficacy with fomesafen, glasshouse spray test; conditions: fomesafen sodium salt SL, mean over 100 and 200 g/ha and 3 replicates; adjuvant 0.2% v/v (none in No Adjuvant rows); % leaf area killed, 21 days after application; Tests 1-4 separate runs
Procedure: (§1) The efficacy of adjuvants 1-12 as adjuvants for the herbicide fomesafen (as the sodium salt) were tested in a glasshouse against four weed species, sown into standard soil in pots and cultivated under controlled conditions in a glasshouse (at 24/18° C. day/night; 16 hours light, 65% humidity). Fomesafen sodium salt was added to the spray tank as a standard SL (soluble concentrate) formulation.
(§2) The spray tests were also carried out using fomesafen in conjunction with adjuvants 1-12. Unless otherwise stated, the adjuvants were added to the spray solution at a rate of 0.2% v/v. All spray solutions also contained 12.5% v/v of iso-Propanol to normalise the retention of the sprays on the hydrophobic plant surfaces. The weed species and their BBCH growth stage at spraying were Abutilon theophrasti (ABUTH; growth stage 12-13), Chenopodium album (CHEAL; growth stage 15), Ipomea hederacea (IPOHE; growth stage 12), and Setaria viridis (SETVI; growth stage 14). Each spray test was replicated three times. The test plants were then grown in a glasshouse under controlled conditions (at 24/18° C. day/night; 16 hours light; 65% humidity) and watered twice a day.
(§3) The efficacy of the herbicide was assessed visually and expressed as a percentage of the leaf area killed. Samples were assessed at a time period of 21 days following application. The results shown in Table 2 below are mean averages over the two rates of fomesafen, the three replicates […].

[2] = system: Chenopodium album (CHEAL); experiment: as above; conditions: fomesafen sodium salt SL, mean over 100 and 200 g/ha and 3 replicates; adjuvant 0.2% v/v (none in No Adjuvant rows); % leaf area killed, 21 days after application; Tests 1-4 separate runs
Procedure: as §1, §2, §3

[3] = system: Abutilon theophrasti (ABUTH); experiment: as above; conditions: fomesafen sodium salt SL, mean over 100 and 200 g/ha and 3 replicates; adjuvant 0.2% v/v (none in No Adjuvant rows); % leaf area killed, 21 days after application; Tests 1-4 separate runs
Procedure: as §1, §2, §3

[4] = system: Ipomea hederacea (IPOHE); experiment: as above; conditions: fomesafen sodium salt SL, mean over 100 and 200 g/ha and 3 replicates; adjuvant 0.2% v/v (none in No Adjuvant rows); % leaf area killed, 21 days after application; Tests 1-4 separate runs
Procedure: as §1, §2, §3

[5] = system: four weed species (ABUTH, CHEAL, IPOHE, SETVI); experiment: Adjuvant efficacy with fomesafen, glasshouse spray test, average over all species; conditions: fomesafen sodium salt SL, mean over 100 and 200 g/ha, adjuvant 0.2% v/v (none in No Adjuvant rows), 21 days, average of ABUTH
Procedure: as §1, §2, §3

[6] = system: four weed species (ABUTH, CHEAL, DIGSA, SETVI); experiment: Adjuvant efficacy with nicosulfuron, glasshouse spray test, average over all species; conditions: nicosulfuron WG, mean over 15 and 60 g/ha, adjuvant 0.2% v/v (none in No Adjuvant rows), 21 days, average of ABUTH
Procedure: (§4) The efficacy of adjuvants 1-12 as adjuvants for the herbicide nicosulfuron were tested in a glasshouse against four weed species sown into standard soil in pots and cultivated under controlled conditions in a glasshouse (at 24/18° C. day/night; 16 hours light; 65% humidity). Nicosulfuron was added to the spray tank as a standard WG (water dispersible granule) formulation.
(§5) The spray tests were also carried out using nicosulfuron in conjunction with adjuvants 1-12. The adjuvant was added to the spray solution at a rate of 0.2% v/v. All spray solutions also contained 12.5% v/v of iso-Propanol. The weed species and their BBCH growth stage at spraying were Abutilon theophrasti (ABUTH; growth stage 13), Chenopodium album (CHEAL; growth stage 13-14), Digitaria sanguinalis (DIGSA; growth stage 11), and Setaria viridis (SETVI; growth stage 13). Each spray test was replicated three times. The test plants were then grown in a glasshouse under controlled conditions (at 24/18° C. day/night; 16 hours light; 65% humidity) and watered twice a day. The efficacy of the herbicide was assessed visually and expressed as a percentage of the leaf area killed. Samples were assessed at a time period of 21 days following application. The results shown in Table 1 below are mean averages over the two rates of nicosulfuron, and the three replicates.

[7] = system: Digitaria sanguinalis (DIGSA); experiment: Adjuvant efficacy with nicosulfuron, glasshouse spray test; conditions: nicosulfuron WG, mean over 15 and 60 g/ha and 3 replicates; adjuvant 0.2% v/v (none in No Adjuvant rows); % leaf area killed, 21 days after application; Tests 1-4 separate runs
Procedure: as §4, §5

[8] = system: Setaria viridis (SETVI); experiment: as above; conditions: nicosulfuron WG, mean over 15 and 60 g/ha and 3 replicates; adjuvant 0.2% v/v (none in No Adjuvant rows); % leaf area killed, 21 days after application; Tests 1-4 separate runs
Procedure: as §4, §5

[9] = system: Chenopodium album (CHEAL); experiment: as above; conditions: nicosulfuron WG, mean over 15 and 60 g/ha and 3 replicates; adjuvant 0.2% v/v (none in No Adjuvant rows); % leaf area killed, 21 days after application; Tests 1-4 separate runs
Procedure: as §4, §5

[10] = system: Abutilon theophrasti (ABUTH); experiment: as above; conditions: nicosulfuron WG, mean over 15 and 60 g/ha and 3 replicates; adjuvant 0.2% v/v (none in No Adjuvant rows); % leaf area killed, 21 days after application; Tests 1-4 separate runs
Procedure: as §4, §5

[11] = system: Setaria viridis (SETVI); experiment: Adjuvant efficacy with pinoxaden, glasshouse spray test; conditions: pinoxaden EC, mean over 7.5 and 15 g/ha and 3 replicates; adjuvant 0.2% v/v (none in No Adjuvant rows); % leaf area killed, 21 days after application; Tests 1-4 separate runs
Procedure: as §4, with “pinoxaden” for “nicosulfuron”, “species,” for “species”, “20/16°” for “24/18°”, “Pinoxaden” for “Nicosulfuron”, “EC (emulsifiable concentrate)” for “WG (water dispersible granule)”
(§6) The spray tests were also carried out using pinoxaden in conjunction with adjuvants 1-12. The adjuvants were added to the spray solution at a rate of 0.2% v/v unless otherwise stated. All spray solutions also contained 10% w/w of iso-Propanol. The weed species and their BBCH growth stage at spraying were Avena fatua (AVEFA; growth stage 12), Lolium perenne (LOLPE; growth stage 13), Alopecurus myosuroides (ALOMY; growth stage 13), and Setaria viridis (SETVI; growth stage 13-14). Each spray test was replicated three times. The test plants were then grown in a glasshouse under controlled conditions (at 20/16° C. day/night; 16 hours light; 65% humidity) and watered twice a day. The efficacy of the herbicide was assessed visually and expressed as a percentage of the leaf area killed. Samples were assessed at a time period of 21 days following application. The results shown in Table 4 below are mean averages over the two rates of pinoxaden, and the three replicates.

[12] = system: Alopecurus myosuroides (ALOMY); experiment: as above; conditions: pinoxaden EC, mean over 7.5 and 15 g/ha and 3 replicates; adjuvant 0.2% v/v (none in No Adjuvant rows); % leaf area killed, 21 days after application; Tests 1-4 separate runs
Procedure: as §4, with “pinoxaden” for “nicosulfuron”, “species,” for “species”, “20/16°” for “24/18°”, “Pinoxaden” for “Nicosulfuron”, “EC (emulsifiable concentrate)” for “WG (water dispersible granule)”
as §6

[13] = system: Lolium perenne (LOLPE); experiment: as above; conditions: pinoxaden EC, mean over 7.5 and 15 g/ha and 3 replicates; adjuvant 0.2% v/v (none in No Adjuvant rows); % leaf area killed, 21 days after application; Tests 1-4 separate runs
Procedure: as §4, with “pinoxaden” for “nicosulfuron”, “species,” for “species”, “20/16°” for “24/18°”, “Pinoxaden” for “Nicosulfuron”, “EC (emulsifiable concentrate)” for “WG (water dispersible granule)”
as §6

[14] = system: Avena fatua (AVEFA); experiment: as above; conditions: pinoxaden EC, mean over 7.5 and 15 g/ha and 3 replicates; adjuvant 0.2% v/v (none in No Adjuvant rows); % leaf area killed, 21 days after application; Tests 1-4 separate runs
Procedure: as §4, with “pinoxaden” for “nicosulfuron”, “species,” for “species”, “20/16°” for “24/18°”, “Pinoxaden” for “Nicosulfuron”, “EC (emulsifiable concentrate)” for “WG (water dispersible granule)”
as §6

## CCCCCCCCC=CCCCCCCCCOc1cc(OCCOCCOCCOCCOCCOCCOCCOCCOCCOCCOC)ncn1 [Adjuvant 10]
[1]
  Mean % Herbicidal Activity SETVI: 65% and 17%
[2]
  Mean % Herbicidal Activity CHEAL: 60% and 88%
[3]
  Mean % Herbicidal Activity ABUTH: 56% and 28%
[4]
  Mean % Herbicidal Activity IPOHE: 92% and 50%
[5]
  Mean % Herbicidal Activity Average over all Species: 68% and 46%
[6]
  Mean % Herbicidal Activity Average over all Species: 81%
[7]
  Mean % Herbicidal Activity DIGSA: 88%
[8]
  Mean % Herbicidal Activity SETVI: 97%
[9]
  Mean % Herbicidal Activity CHEAL: 80%
[10]
  Mean % Herbicidal Activity ABUTH: 58%
[11]
  Mean % Herbicidal Activity SETVI: 89%
[12]
  Mean % Herbicidal Activity ALOMY: 9%
[13]
  Mean % Herbicidal Activity LOLPE: 25%
[14]
  Mean % Herbicidal Activity AVEFA: 80%

## CCCCCCCCC=CCCCCCCCCOc1cc(OCCOCCOCCOCCOCCOCCOCCOCCOCCOCCOCCOCCOCCOCCOCCOCCOCCOCCOCCOCCOC)ncn1 [Adjuvant 11]
[1]
  Mean % Herbicidal Activity SETVI: 39%
[2]
  Mean % Herbicidal Activity CHEAL: 80%
[3]
  Mean % Herbicidal Activity ABUTH: 48%
[4]
  Mean % Herbicidal Activity IPOHE: 98%
[5]
  Mean % Herbicidal Activity Average over all Species: 66%
[6]
  Mean % Herbicidal Activity Average over all Species: 82%
[7]
  Mean % Herbicidal Activity DIGSA: 88%
[8]
  Mean % Herbicidal Activity SETVI: 94%
[9]
  Mean % Herbicidal Activity CHEAL: 82%
[10]
  Mean % Herbicidal Activity ABUTH: 64%
[11]
  Mean % Herbicidal Activity SETVI: 84%
[12]
  Mean % Herbicidal Activity ALOMY: 11%
[13]
  Mean % Herbicidal Activity LOLPE: 15%
[14]
  Mean % Herbicidal Activity AVEFA: 41%

## CCCCCCCCCCCCOc1cc(OCC(C)OCC(C)OCC(C)OC)ncn1 (stereo not drawn) [Adjuvant 12]
[1]
  Mean % Herbicidal Activity SETVI: 77%
[2]
  Mean % Herbicidal Activity CHEAL: 80%
[3]
  Mean % Herbicidal Activity ABUTH: 74%
[4]
  Mean % Herbicidal Activity IPOHE: 98%
[5]
  Mean % Herbicidal Activity Average over all Species: 82%
[6]
  Mean % Herbicidal Activity Average over all Species: 85%
[7]
  Mean % Herbicidal Activity DIGSA: 93%
[8]
  Mean % Herbicidal Activity SETVI: 96%
[9]
  Mean % Herbicidal Activity CHEAL: 83%
[10]
  Mean % Herbicidal Activity ABUTH: 66%
[11]
  Mean % Herbicidal Activity SETVI: 94%
[12]
  Mean % Herbicidal Activity ALOMY: 23%
[13]
  Mean % Herbicidal Activity LOLPE: 76%
[14]
  Mean % Herbicidal Activity AVEFA: 87%
